One test has as its system native geph. Description: µSPOT peptide microarray binding assay with native geph from mouse brain lysate.
The test system of a further test is FL-geph. Put plainly: µSPOT peptide microarray binding assay with full-length geph.
The test system of a further test is gephE. Put plainly: µSPOT peptide microarray binding assay with recombinant gephE.
Setting [1] is: µSPOT full positional scan of GlyRβ 15-mer DLRSNDFSIVGSLPR, native geph, intensity normalised to wild-type sequence (= 1).
Where [2] appears, read: µSPOT full positional scan of GlyRβ 15-mer DLRSNDFSIVGSLPR, intensity normalised to wild-type sequence (= 1).
The mark [3] stands for this setting: µSPOT peptide microarray, GlyRβ full positional scan, native geph from mouse brain lysate, intensity normalised to wild-type sequence DLRSNDFSIVGSLPR (=1).
[4] abbreviates: µSPOT peptide microarray, GlyRβ full positional scan, intensity normalised to wild-type sequence DLRSNDFSIVGSLPR (=1).
Setting [5] is: µSPOT peptide microarray, GlyRβ full positional scan, recombinant gephE, intensity normalised to wild-type sequence DLRSNDFSIVGSLPR (=1).
The mark [6] stands for this setting: overlapping GlyR β peptide library on µSPOT array, 3% mouse brain lysate, normalized to most prominent spot, n = 2 array-internal duplicate.
The mark [7] stands for this setting: overlapping GlyR β peptide library on µSPOT array, 50 nM gephE, anti-gephyrin 3B11/HRP chemiluminescence, normalized to most prominent spot, n = 2 array-internal duplicate.
[8] abbreviates: overlapping GABAAR α3 peptide library on µSPOT array, 6% mouse brain lysate, normalized to most prominent spot, n = 2 array-internal duplicate.
Where [9] appears, read: overlapping GABAAR α3 peptide library on µSPOT array, 20 nM gephE, normalized to most prominent spot, n = 2 array-internal duplicate.

Protocol for native geph: Preparation of Mouse Tissue Lysates
Whole mouse brains were obtained from C57BL/6J mice at >4 weeks of age and 80 immediately flash frozen in liquid N2. Tissue of mRFP-gephyrin knock-in animals of 1 year of age (provided by Christian Specht, IBENS, Paris) was processed the same way. Before lysis, whole mouse brains were weighted and cut into four pieces along the coronal and sagittal axis. For preparation of one lysate, two diagonally opposite pieces were transferred into a 1.5 mL reaction tube (Sarsted). Lysis was carried out on ice in 400 µL RIPA lysis buffer (150 mM 85 NaCl, 50 mM Tris-HCl (pH=8), 1% Nonident P-40 substitute, 0.5% DOC, 0.1% SDS (all v/v)), to which Ethylenediaminetetraacetic acid (5 mM end concentration) and 1 mini tablet of ROCHE complete protease inhibitor per 10 mL was added immediately before use, by hand crushing the brain material with a hand pestle in a 1.5 mL reaction tube. Lysis was completed by 1 min sonification on ice with a Sartorius Labsonic M Sonificator at 20% amplitude with 90 care to avoid heating the suspensions. Finally, Lysates were centrifuged for 15 min at 17,200×g and 4 °C. The SN was subsequently collected, transferred to a new 1.5 mL reaction tube, flash frozen in liquid N2 and stored at -80 °C until use.
95 µSPOT slides were blocked by incubation with 2.5 mL 2% (w/v) IGG free bovine serum

As for “DLRSNDFSIVGSPPR [GlyRβ_Full_Positional_Scan_245]”, the “Native geph Binding Intensity [norm.]” value with native geph (setting [1]) is on record as 0.78 norm. The “Fl-geph Binding Intensity [norm.]” value in the test with FL-geph (setting [2]) was 0.96 norm. Besides, the “gephE Binding Intensity [norm.]” value in the test on gephE (setting [2]) stood at 0.89 norm.

On to “DLRSVDFSIVGSLPR [GlyRβ_Full_Positional_Scan_086]”, for which the “Native geph Binding Intensity [norm.]” value with native geph (setting [3]) was 0.72 norm. For the same sequence, the “Fl-geph Binding Intensity [norm.]” value in the test on FL-geph (setting [4]) is 0.83 norm. In addition, the “gephE Binding Intensity [norm.]” value in the test on gephE (setting [5]) was 0.84 norm.

Consider “DLRSNDFSIVGSRPR [GlyRβ_Full_Positional_Scan_252]”, for which the “Native geph Binding Intensity [norm.]” value in the test with native geph (setting [1]) was determined as 0.38 norm. The “Fl-geph Binding Intensity [norm.]” value with FL-geph (setting [2]) is on record as 1.07 norm. Besides, the “gephE Binding Intensity [norm.]” value with gephE (setting [2]) came to 0.84 norm.

Turning to “DLRSNDFSIVGSLPQ [GlyRβ_Full_Positional_Scan_300]”, the “Native geph Binding Intensity [norm.]” value in the test on native geph (setting [1]) worked out at 1.41 norm. For the same sequence, the “Fl-geph Binding Intensity [norm.]” value in the test with FL-geph (setting [2]) is 1.33 norm. Moreover, in the test with gephE (setting [2]), the “gephE Binding Intensity [norm.]” value is given as 1.02 norm.

On to “DLRSNDFSILGSLPR [GlyRβ_Full_Positional_Scan_184, GlyR β 414-428 variant V423L]”, for which, in the test with native geph (setting [3]), the “Native geph Binding Intensity [norm.]” value is 0.23 norm. In addition, the “Fl-geph Binding Intensity [norm.]” value with FL-geph (setting [4]) came out at 0.66 norm. In the test with gephE (setting [5]), the “gephE Binding Intensity [norm.]” value is on record as 0.39 norm.

For “DLRSNKFSIVGSLPR [GlyRβ_Full_Positional_Scan_114]”, the “Native geph Binding Intensity [norm.]” value in the test with native geph (setting [3]) came to 0.37 norm. Further, in the test with FL-geph (setting [4]), the “Fl-geph Binding Intensity [norm.]” value is listed as 0.98 norm. For the same sequence, the “gephE Binding Intensity [norm.]” value in the test with gephE (setting [5]) is 0.8 norm.

Consider “DLRSNDFSIVGGLPR [GlyRβ_Full_Positional_Scan_222]”, for which the “Native geph Binding Intensity [norm.]” value in the test with native geph (setting [1]) amounted to 0.86 norm. The “Fl-geph Binding Intensity [norm.]” value in the test on FL-geph (setting [2]) is reported as 0.99 norm. Also, the “gephE Binding Intensity [norm.]” value in the test with gephE (setting [2]) was found to be 0.75 norm.

For the sequence “DLRSNDFSIVGCLPR [GlyRβ_Full_Positional_Scan_237]”, the “Native geph Binding Intensity [norm.]” value in the test on native geph (setting [1]) is on record as 0.48 norm. The “Fl-geph Binding Intensity [norm.]” value in the test with FL-geph (setting [2]) amounted to 0.83 norm. For the same sequence, the “gephE Binding Intensity [norm.]” value in the test with gephE (setting [2]) is on record as 0.63 norm.

On to “DLTSNDFSIVGSLPR [GlyRβ_Full_Positional_Scan_056]”, for which, in the test on native geph (setting [3]), the “Native geph Binding Intensity [norm.]” value worked out at 1.38 norm. Besides, in the test with FL-geph (setting [4]), the “Fl-geph Binding Intensity [norm.]” value was determined as 1.18 norm. Further, in the test on gephE (setting [5]), the “gephE Binding Intensity [norm.]” value was found to be 0.96 norm.

On to “DLRSADFSIVGSLPR [GlyRβ_Full_Positional_Scan_081]”, for which the “Native geph Binding Intensity [norm.]” value in the test on native geph (setting [3]) was 0.76 norm. In addition, the “Fl-geph Binding Intensity [norm.]” value in the test on FL-geph (setting [4]) stood at 0.9 norm. For the same sequence, the “gephE Binding Intensity [norm.]” value in the test with gephE (setting [5]) stood at 0.93 norm.

On to “DLRSNDFSIVGLLPR [GlyRβ_Full_Positional_Scan_224]”, for which, in the test with native geph (setting [1]), the “Native geph Binding Intensity [norm.]” value was 0.44 norm. Also, the “Fl-geph Binding Intensity [norm.]” value in the test with FL-geph (setting [2]) amounted to 1.01 norm. Also, the “gephE Binding Intensity [norm.]” value in the test on gephE (setting [2]) was determined as 0.62 norm.

On to “PQAKNKKPPPAKPVIPTAAK [Glycine receptor subunit beta_035, GlyR β residues 451-470]”, for which, in the test on native geph (setting [6]), the “Native geph Binding Intensity [norm.]” value was found to be 0.087 norm. In addition, in the test on gephE (setting [7]), the “gephE Binding Intensity [norm.]” value stood at 0.012 norm.

Regarding “KSDLRSNDFSIVGSLPRDFE [Glycine receptor subunit beta_022, GlyR β residues 412-431]”, in the test on native geph (setting [6]), the “Native geph Binding Intensity [norm.]” value turned out to be 0.945 norm. Also, the “gephE Binding Intensity [norm.]” value with gephE (setting [7]) is 0.972 norm.

On to “NNPKRVEAEKARIAKAEQAD [Glycine receptor subunit beta_003, GlyR β residues 355-374]”, for which, in the test on native geph (setting [6]), the “Native geph Binding Intensity [norm.]” value is reported as 0.109 norm. The “gephE Binding Intensity [norm.]” value with gephE (setting [7]) came out at 0.023 norm.

Consider “TPAAPTKKNTTFNIVGTTYP [GABAAR α3 residues 384-403, µSpot library]”, for which the “Native geph Binding Intensity [norm.]” value with native geph (setting [8]) worked out at 1.000 norm. Moreover, the “gephE Binding Intensity [norm.]” value in the test on gephE (setting [9]) is listed as 0.948 norm.

As for “TAIASPKATYVQDSPAETKT [GABAAR α3 residues 429-448, µSpot library]”, in the test on native geph (setting [8]), the “Native geph Binding Intensity [norm.]” value is on record as 0.060 norm. Further, in the test with gephE (setting [9]), the “gephE Binding Intensity [norm.]” value was 0.018 norm.

Consider “KKNTTFNIVGTTYPINLAKD [GABAAR α3 residues 390-409, µSpot library]”, for which the “Native geph Binding Intensity [norm.]” value in the test on native geph (setting [8]) is 0.243 norm. For the same sequence, the “gephE Binding Intensity [norm.]” value in the test on gephE (setting [9]) was 0.443 norm.

As to “NYFTKRSWAWEGKKVPEALE [GABAAR α3 residues 360-379, µSpot library]”, in the test with native geph (setting [8]), the “Native geph Binding Intensity [norm.]” value was 0.048 norm. For the same sequence, the “gephE Binding Intensity [norm.]” value in the test on gephE (setting [9]) came to 0.062 norm.

Regarding “TVNGTGTPVHISTLQVGETR [Glycine receptor subunit beta_013]”, the “Native geph Binding Intensity [norm.]” value in the test on native geph (setting [6]) is reported as 0.087 norm. Also, in the test with gephE (setting [7]), the “gephE Binding Intensity [norm.]” value amounted to 0.008 norm.

“KRVEAEKARIAKAEQADGKG [Glycine receptor subunit beta_004]”: in the test with native geph (setting [6]), the “Native geph Binding Intensity [norm.]” value stood at 0.117 norm. The “gephE Binding Intensity [norm.]” value in the test with gephE (setting [7]) was 0.052 norm.

In the case of “APTKKNTTFNIVGTTYPINL [GABAAR α3 residues 387-406, µSpot library]”, the “Native geph Binding Intensity [norm.]” value in the test on native geph (setting [8]) amounted to 0.767 norm. Also, the “gephE Binding Intensity [norm.]” value with gephE (setting [9]) turned out to be 1.000 norm.

“KATYVQDSPAETKTYNSVSK [GABAAR α3 residues 435-454, µSpot library]”: in the test on native geph (setting [8]), the “Native geph Binding Intensity [norm.]” value is 0.059 norm. For the same sequence, in the test with gephE (setting [9]), the “gephE Binding Intensity [norm.]” value is 0.070 norm.

On to “AAPSASSTPTAIASPKATYV [GABAAR α3 residues 420-439, µSpot library]”, for which the “Native geph Binding Intensity [norm.]” value in the test with native geph (setting [8]) is listed as 0.080 norm. Moreover, the “gephE Binding Intensity [norm.]” value in the test with gephE (setting [9]) is listed as 0.038 norm.

“KPPPAKPVIPTAAKRIDL [Glycine receptor subunit beta_037, GlyR β residues 457-474]”: the “Native geph Binding Intensity [norm.]” value in the test with native geph (setting [6]) amounted to 0.075 norm. The “gephE Binding Intensity [norm.]” value with gephE (setting [7]) came to 0.037 norm.

Take “IEVNNGLGKPQAKNKKPPPA [Glycine receptor subunit beta_032, GlyR β residues 442-461]”: the “Native geph Binding Intensity [norm.]” value with native geph (setting [6]) worked out at 0.075 norm. Besides, in the test with gephE (setting [7]), the “gephE Binding Intensity [norm.]” value turned out to be 0.009 norm.

Consider “NIVGTTYPINLAKDTEFSTI [GABAAR α3 residues 396-415, µSpot library]”, for which the “Native geph Binding Intensity [norm.]” value in the test with native geph (setting [8]) stood at 0.114 norm. The “gephE Binding Intensity [norm.]” value in the test on gephE (setting [9]) is recorded as 0.044 norm.

For “TLQVGETRCKKVCTSKSDLR [Glycine receptor subunit beta_017, GlyR β residues 397-416]”, the “Native geph Binding Intensity [norm.]” value with native geph (setting [6]) is reported as 0.054 norm. For the same sequence, in the test on gephE (setting [7]), the “gephE Binding Intensity [norm.]” value amounted to 0.016 norm.

As to “AEQADGKGGNAAKKNTVNGT [Glycine receptor subunit beta_008, GlyR β residues 370-389]”, the “Native geph Binding Intensity [norm.]” value in the test with native geph (setting [6]) worked out at 0.065 norm. In the test with gephE (setting [7]), the “gephE Binding Intensity [norm.]” value was determined as 0.023 norm.

Consider “GTTYPINLAKDTEFSTISKS [GABAAR α3 residues 399-418, µSpot library]”, for which the “Native geph Binding Intensity [norm.]” value in the test on native geph (setting [8]) came out at 0.098 norm. Further, the “gephE Binding Intensity [norm.]” value in the test with gephE (setting [9]) worked out at 0.030 norm.

As to “LRSNDFSIVGSLPRDFELSN [Glycine receptor subunit beta_023, GlyR β residues 415-434]”, the “Native geph Binding Intensity [norm.]” value in the test on native geph (setting [6]) was 1.000 norm. In the test on gephE (setting [7]), the “gephE Binding Intensity [norm.]” value is given as 1.000 norm.

Turning to “KKVCTSKSDLRSNDFSIVGS [Glycine receptor subunit beta_020, GlyR β residues 406-425]”, in the test on native geph (setting [6]), the “Native geph Binding Intensity [norm.]” value is 0.309 norm. The “gephE Binding Intensity [norm.]” value in the test with gephE (setting [7]) was 0.393 norm.

Source of the values: publication PMC7753147, “High-throughput determination of protein affinities using unmodified peptide libraries in nanomolar scale” (iScience, 2020).
